{"source": "patent US11612641B2", "about": "“Method for treating Huntingtons's disease” (UNIVERSITY OF IOWA RESEARCH FOUNDATION, priority 2014, dated 2023)", "key": {"mTORC1": {"target": "T1, mTORC1 (Mus musculus, UniProt P26883+Q9JLN9)", "T1 construct": "Biochemical assessment of mTORC1 activity (pS6) in striatal lysates from N171-82Q mice; from tissue; host or cells: striatum of N171-82Q transgenic mice (in vivo)", "assay": "mTORC1 activity (pS6) in striatum of N171-82Q mice given RAD001", "assay_type": "in vivo", "conditions": "RAD001 for 2 weeks vs vehicle, striata harvested 24 hours after the last dose", "from_the_text": "(§1) All animal protocols were approved by the University of Iowa Animal Care and Use Committee. N171-82Q mice were obtained from Jackson Laboratories (Bar Harbor, Me.) and maintained on B6C3F1/J background. Mice were genotyped using primers specific for the mutant human HTT transgene, and hemizygous and age-matched wild-type littermates were used for the indicated experiments. Mice were housed in a controlled temperature environment on a 12-hour light/dark cycle. Food and water were provided ad libitum. For pharmacological studies, RAD001 was obtained from LC Laboratories, diluted to 2 mg/ml in 2% DMSO, and stored at −20° C. Freshly thawed vehicle and RAD001 (30 μmol/kg) were given 3 times per week (Monday, Wednesday, and Friday) for two weeks by gavage as described previously (Fox et al., 2010). […]\nFloating, 40-μm coronal brain sections were processed for immunohistochemical staining of medium spiny neurons or mHTT aggregates using biotin-labeled antibody. […] S6 phosphorylation was detected with a phospho-S6 antibody (S235/236, 1:300, Cell Signaling). […] The areas of DARPP-32 positive MSN were quantified by Olympus DP2-BSW software (version 2.1). The average MSN areas of ipsilateral injected sides were compared to contralateral control sides and expressed as means+SEM. EM48 positive inclusions were counted by an experimenter blinded to treatment groups. […]"}, "[1]": {"tested_on": "medium spiny neurons (MSN)", "assay": "DARPP-32 staining: MSN cell area and striatal volume in N171-82Q mice", "assay_type": "in vivo, mouse", "from_the_text": "as §1, with “C.” for “C. Freshly thawed vehicle and RAD001 (30 μmol/kg) were given 3 times per week (Monday, Wednesday, and Friday) for two weeks by gavage as described previously (Fox et al., 2010).”\nFloating, 40-μm coronal brain sections were processed for immunohistochemical staining of medium spiny neurons or mHTT aggregates using biotin-labeled antibody. […] S6 phosphorylation was detected with a phospho-S6 antibody (S235/236, 1:300, Cell Signaling). […] The areas of DARPP-32 positive MSN were quantified by Olympus DP2-BSW software (version 2.1). The average MSN areas of ipsilateral injected sides were compared to contralateral control sides and expressed as means+SEM. EM48 positive inclusions were counted by an experimenter blinded to treatment groups.\nStriatal volume was calculated using point counting methods with the Cavalieri estimator of volume (Michel and Cruz-Orive, 1988). […] A minimum of 200 points were counted over 5 sections. […]"}, "[2]": {"tested_on": "Q7 and Q111 striatal cells", "assay": "Western blot of Q7 and Q111 striatal cells treated with Torin1", "assay_type": "cell-based", "conditions": "250 nM Torin1, 24 hours", "description": "(§2) Mutant (Q111) and WT (Q7) striatal cells (Trettel et al., 2000) with full-length HTT were kindly provided by Dr. Marcy MacDonald. The Q7 and Q111 cells were grown at 37° C. in Dulbecco's modified Eagle's medium (DMEM; Sigma Chemical Co, St. Louis, Mo.) supplemented with 10% fetal bovine serum, 1% non-essential amino acids, 2 mM L-glutamine, and 400 μg/ml G418 (Geneticin; Invitrogen, Carlsbad, Calif.).\nMouse striata were harvested and lysed in RIPA buffer containing 50 mM Tris (pH 8.0), 150 mM NaCl, 1% […] detergent, 0.1% SDS detergent, 0.5% deoxycholic acid, and 1 mM β-mercaptoethanol with protease inhibitors (Complete Mini, Roche Applied Science, Mannheim, Germany) and phosphatase inhibitors (PhosSTOP Phosphatase Inhibitor Cocktail, Roche Applied Science, Mannheim, Germany). Tissues were homogenized on ice and spun at 14,000 g for 20 min. Supernatant were used for analysis. Protein concentration was determined by BCA assay (Pierce, Rockford, Ill.) and 20-30 μg of protein was reduced and separated by SDS-PAGE on 4%-10% acrylamide gels and transferred to 0.2 μm Immobilon PVDF membranes (Millipore, Billerica, Mass.). The primary antibodies used were as follows: DARPP-32 (1:1000, Cell Signaling), β-actin (Sigma-Aldrich, 1:5000), S6 (1:1000, Cell Signaling), phospho-S6 (S235/236, 1:1000, Cell Signaling), 4EBP1 (1:1000, Cell Signaling), phospho-4E-BP1 (T37/46, 1:1000, Cell Signaling), mTOR (1:1000, Cell Signaling), Rictor (1:1000, Cell Signaling), Raptor (1:1000, Cell Signaling), CREB (1:1000, Cell Signaling), TORC1 (1:1000, Cell Signaling), PGC1-α (1:1000, abeam), LC3 (1:1000, Novus Biologicals), and Beclin1 (1:1000, Cell Signaling). Secondary antibodies used were HRP-goat anti-mouse IgG and HRP-goat anti-rabbit IgG (Cell Signaling). Blots were developed using ECL Plus Western Blotting Detection System (GE Healthcare, Pittsburgh, Pa.), and then exposed to film. Protein quantification was performed using NIH ImageJ software or the VersaDoc™ Imaging System (Biorad) and Quantity One R analysis software. Band densities were normalized to housekeeping (β-actin) bands from the same samples and lanes."}, "[3]": {"tested_on": "Q7 and Q111 striatal cells", "assay": "RT-qPCR of HMGCR and HMGCS1 in Q7 and Q111 striatal cells treated with Torin1", "assay_type": "cell-based", "conditions": "250 nM Torin1, 24 hours, both mutant and normal cell lines", "description": "as §2\nRNA was isolated from striatal punches using 1 ml of TRIzol. Random-primed first-strand complementary DNA (cDNA) synthesis was performed using 500 ng total RNA (High Capacity cDNA Reverse Transcription Kit; Applied Biosystems, Foster City, Calif.) per manufacturer's protocol. Real-time PCR was performed on a sequence detection system (Prism 7900HT, Applied Biosystems) using SYBR green PCR mix (Invitrogen) or TaqMan 2× Universal Master Mix (Applied Biosystems). The following Taqman primer/probe sets were obtained from Applied Biosystem: Rhes (Mm04209172_m1 and Hs04188091_mH), PGC1-α (Mm01208835_m1), and HMGCS1 (Mm01304569_m1), and HDAC4 (Mm01299557_m1). The primer sequences for SYBR green RT PCR are available upon request. Relative gene expression was determined using the AACT method, normalizing to β-actin."}, "R6/2 HD mice": {"tested_on": "R6/2 HD mice", "conditions": "R6/2 HD mice (Fox et al., 2010); cited from earlier work"}}, "note": "“Also recorded” adds a separate entry of the source."}
{"smiles": "CO[C@H]1C[C@@H]2CC[C@@H](C)[C@@](O)(O2)C(=O)C(=O)N2CCCC[C@H]2C(=O)O[C@H]([C@H](C)C[C@@H]2CC[C@@H](OCCO)[C@H](OC)C2)CC(=O)[C@H](C)/C=C(\\C)[C@@H](O)[C@@H](OC)C(=O)[C@H](C)C[C@H](C)/C=C/C=C/C=C/1C", "note": "[RAD001]", "values": [{"measurement": "mTORC1 activity (S6 phosphorylation, pS6)", "setting": "mTORC1", "result": "attenuated; also recorded: inhibits mTORC1 activity"}, {"measurement": "MSN atrophy", "setting": "[1]; 2 weeks of RAD001 treatment in the absence of caRheb, N171-82Q mice", "result": "mild but significant exacerbation"}, {"measurement": "morphological effects of caRheb (MSN cell size, striatal volume)", "setting": "[1]; RAD001 30 μmol/kg by gavage 3 times per week for two weeks in AAV.caRheb injected N171-82Q mice", "result": "reversed"}]}
{"smiles": "CCC(=O)N1CCN(c2ccc(-n3c(=O)ccc4cnc5ccc(-c6cnc7ccccc7c6)cc5c43)cc2C(F)(F)F)CC1", "note": "[Torin1]", "values": [{"measurement": "CREB", "setting": "[2]", "result": "repressed"}, {"measurement": "DARPP-32 expression", "setting": "[2]", "result": "reduced"}, {"measurement": "PGC1-α", "setting": "[2]", "result": "repressed"}, {"measurement": "p-4E-BP1 levels", "setting": "[2]", "result": "reduced"}, {"measurement": "pS6 levels", "setting": "[2]", "result": "reduced"}, {"measurement": "transducer of regulated CREB 1 (TORC1)", "setting": "[2]", "result": "repressed"}, {"measurement": "HMGCR expression", "setting": "[3]", "result": "reduced expression"}, {"measurement": "HMGCS1 expression", "setting": "[3]", "result": "reduced expression"}]}
{"smiles": "CO[C@H]1C[C@@H]2CC[C@@H](C)[C@@](O)(O2)C(=O)C(=O)N2CCCC[C@H]2C(=O)O[C@H]([C@H](C)C[C@@H]2CC[C@@H](O)[C@H](OC)C2)CC(=O)[C@H](C)/C=C(\\C)[C@@H](O)[C@@H](OC)C(=O)[C@H](C)C[C@H](C)/C=C/C=C/C=C/1C", "note": "[rapamycin]", "values": [{"measurement": "brain atrophy", "setting": "R6/2 HD mice", "result": "enhanced brain atrophy"}, {"measurement": "weight loss", "setting": "R6/2 HD mice", "result": "accelerated weight loss"}]}
